Experimental data: patent publication US6869589B1, “Cryptate compounds and methods for diagnosis and therapy” (Australian Nuclear Science & Technology Organization, priority 1999, dated 2005)

Assay: Biodistribution of ^64Cu complexes in balb/c mice
Protocol: The biodistribution of the ^64Cu complexes of compounds (1), (3) and (4) (0.10 ml intravenous injection) were evaluated in balb/c mice (5 animals per time point) at 3, 5, 10, 15, 20 and 30 minute time intervals. Biodistribution studies were performed in duplicate.

For `Nc1ccc(CNC23CNCCNCC(N)(CNCCNC2)CNCCNC3)cc1.[64Cu+2]` [^64Cu-labelled compound (3)], the “% injected dose per gram” value (BLADDER, 3 MIN) was 11.36 % INJECTED DOSE PER GRAM, the “% injected dose per gram” value (BLADDER, 5 MIN) was 12.31 % INJECTED DOSE PER GRAM and the “% injected dose per gram” value (BLADDER, 10 MIN) was 14.36 % INJECTED DOSE PER GRAM. The “% injected dose per gram” value (BLADDER, 15 MIN) was 10.54 % INJECTED DOSE PER GRAM, the “% injected dose per gram” value (BLADDER, 20 MIN) was 13.45 % INJECTED DOSE PER GRAM and the “% injected dose per gram” value (BLADDER, 30 MIN) was 2.74 % INJECTED DOSE PER GRAM. The “% injected dose per gram” value (BLOOD, 3 MIN) was 7.74 % INJECTED DOSE PER GRAM, the “% injected dose per gram” value (BLOOD, 5 MIN) was 8.19 % INJECTED DOSE PER GRAM and the “% injected dose per gram” value (BLOOD, 10 MIN) was 5.23 % INJECTED DOSE PER GRAM. For the same molecule, the “% injected dose per gram” value (BLOOD, 15 MIN) was 4.39 % INJECTED DOSE PER GRAM, the “% injected dose per gram” value (BLOOD, 20 MIN) was 3.05 % INJECTED DOSE PER GRAM and the “% injected dose per gram” value (BLOOD, 30 MIN) was 1.25 % INJECTED DOSE PER GRAM. For the same molecule, the “% injected dose per gram” value (BONE, 3 MIN) was 1.68 % INJECTED DOSE PER GRAM, the “% injected dose per gram” value (BONE, 5 MIN) was 2.11 % INJECTED DOSE PER GRAM and the “% injected dose per gram” value (BONE, 10 MIN) was 1.29 % INJECTED DOSE PER GRAM. The “% injected dose per gram” value (BONE, 15 MIN) was 1.36 % INJECTED DOSE PER GRAM, the “% injected dose per gram” value (BONE, 20 MIN) was 1.11 % INJECTED DOSE PER GRAM and the “% injected dose per gram” value (BONE, 30 MIN) was 0.72 % INJECTED DOSE PER GRAM. The “% injected dose per gram” value (GIT, 3 MIN) was 2.66 % INJECTED DOSE PER GRAM, the “% injected dose per gram” value (GIT, 5 MIN) was 2.88 % INJECTED DOSE PER GRAM and the “% injected dose per gram” value (GIT, 10 MIN) was 1.80 % INJECTED DOSE PER GRAM. For the same molecule, the “% injected dose per gram” value (GIT, 15 MIN) was 2.92 % INJECTED DOSE PER GRAM, the “% injected dose per gram” value (GIT, 20 MIN) was 1.05 % INJECTED DOSE PER GRAM and the “% injected dose per gram” value (GIT, 30 MIN) was 0.55 % INJECTED DOSE PER GRAM. The “% injected dose per gram” value (HEART, 3 MIN) was 2.79 % INJECTED DOSE PER GRAM, the “% injected dose per gram” value (HEART, 5 MIN) was 3.00 % INJECTED DOSE PER GRAM and the “% injected dose per gram” value (HEART, 10 MIN) was 2.03 % INJECTED DOSE PER GRAM. The “% injected dose per gram” value (HEART, 15 MIN) was 1.56 % INJECTED DOSE PER GRAM, the “% injected dose per gram” value (HEART, 20 MIN) was 1.24 % INJECTED DOSE PER GRAM and the “% injected dose per gram” value (HEART, 30 MIN) was 0.50 % INJECTED DOSE PER GRAM. The “% injected dose per gram” value (KIDNEY, 3 MIN) was 22.41 % INJECTED DOSE PER GRAM, the “% injected dose per gram” value (KIDNEY, 5 MIN) was 18.99 % INJECTED DOSE PER GRAM and the “% injected dose per gram” value (KIDNEY, 10 MIN) was 13.41 % INJECTED DOSE PER GRAM. The “% injected dose per gram” value (KIDNEY, 15 MIN) was 10.26 % INJECTED DOSE PER GRAM, the “% injected dose per gram” value (KIDNEY, 20 MIN) was 9.98 % INJECTED DOSE PER GRAM and the “% injected dose per gram” value (KIDNEY, 30 MIN) was 5.95 % INJECTED DOSE PER GRAM. For the same molecule, the “% injected dose per gram” value (LIVER, 3 MIN) was 1.94 % INJECTED DOSE PER GRAM, the “% injected dose per gram” value (LIVER, 5 MIN) was 2.00 % INJECTED DOSE PER GRAM and the “% injected dose per gram” value (LIVER, 10 MIN) was 1.46 % INJECTED DOSE PER GRAM. For the same molecule, the “% injected dose per gram” value (LIVER, 15 MIN) was 1.24 % INJECTED DOSE PER GRAM, the “% injected dose per gram” value (LIVER, 20 MIN) was 1.04 % INJECTED DOSE PER GRAM and the “% injected dose per gram” value (LIVER, 30 MIN) was 0.72 % INJECTED DOSE PER GRAM. The “% injected dose per gram” value (LUNGS, 3 MIN) was 5.48 % INJECTED DOSE PER GRAM, the “% injected dose per gram” value (LUNGS, 5 MIN) was 5.74 % INJECTED DOSE PER GRAM and the “% injected dose per gram” value (LUNGS, 10 MIN) was 4.00 % INJECTED DOSE PER GRAM. For the same molecule, the “% injected dose per gram” value (LUNGS, 15 MIN) was 3.25 % INJECTED DOSE PER GRAM, the “% injected dose per gram” value (LUNGS, 20 MIN) was 2.59 % INJECTED DOSE PER GRAM and the “% injected dose per gram” value (LUNGS, 30 MIN) was 1.13 % INJECTED DOSE PER GRAM. The “% injected dose per gram” value (MUSCLE, 3 MIN) was 1.98 % INJECTED DOSE PER GRAM, the “% injected dose per gram” value (MUSCLE, 5 MIN) was 3.17 % INJECTED DOSE PER GRAM and the “% injected dose per gram” value (MUSCLE, 10 MIN) was 1.73 % INJECTED DOSE PER GRAM. The “% injected dose per gram” value (MUSCLE, 15 MIN) was 2.40 % INJECTED DOSE PER GRAM, the “% injected dose per gram” value (MUSCLE, 20 MIN) was 2.13 % INJECTED DOSE PER GRAM and the “% injected dose per gram” value (MUSCLE, 30 MIN) was 0.50 % INJECTED DOSE PER GRAM. For the same molecule, the “% injected dose per gram” value (SKIN, 3 MIN) was 5.63 % INJECTED DOSE PER GRAM, the “% injected dose per gram” value (SKIN, 5 MIN) was 6.18 % INJECTED DOSE PER GRAM and the “% injected dose per gram” value (SKIN, 10 MIN) was 4.86 % INJECTED DOSE PER GRAM. The “% injected dose per gram” value (SKIN, 15 MIN) was 4.49 % INJECTED DOSE PER GRAM, the “% injected dose per gram” value (SKIN, 20 MIN) was 3.41 % INJECTED DOSE PER GRAM and the “% injected dose per gram” value (SKIN, 30 MIN) was 1.45 % INJECTED DOSE PER GRAM. The “% injected dose per gram” value (SPLEEN, 3 MIN) was 1.96 % INJECTED DOSE PER GRAM, the “% injected dose per gram” value (SPLEEN, 5 MIN) was 2.01 % INJECTED DOSE PER GRAM and the “% injected dose per gram” value (SPLEEN, 10 MIN) was 1.26 % INJECTED DOSE PER GRAM. The “% injected dose per gram” value (SPLEEN, 15 MIN) was 1.09 % INJECTED DOSE PER GRAM, the “% injected dose per gram” value (SPLEEN, 20 MIN) was 0.93 % INJECTED DOSE PER GRAM and the “% injected dose per gram” value (SPLEEN, 30 MIN) was 0.39 % INJECTED DOSE PER GRAM. The “% injected dose per gram” value (STOMACH, 3 MIN) was 2.69 % INJECTED DOSE PER GRAM, the “% injected dose per gram” value (STOMACH, 5 MIN) was 3.11 % INJECTED DOSE PER GRAM and the “% injected dose per gram” value (STOMACH, 10 MIN) was 2.35 % INJECTED DOSE PER GRAM. The “% injected dose per gram” value (STOMACH, 15 MIN) was 1.91 % INJECTED DOSE PER GRAM, the “% injected dose per gram” value (STOMACH, 20 MIN) was 1.54 % INJECTED DOSE PER GRAM and the “% injected dose per gram” value (STOMACH, 30 MIN) was 0.60 % INJECTED DOSE PER GRAM.
In the case of `NC12C[N]3CC[N]4CC5(NCc6ccc([N+](=O)[O-])cc6)C[N]6CC[N](C1)[Cu]3461[N](CC[N]1C5)C2` [compound (2)], the “Clearance of the complex (biodistribution, in words)” value (if the ligand detaches from the antibody) is reported as “clear rapidly from the system”.
